In PubChem BioAssay (NCI):
“And” between values parts separate entries of the source, which are not always exact repeats. Equal entries are not always repeated.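 Compound exposure: 48 hours, 5 concentrations, 96-well plates. Abbreviation: GI50, concentration required for 50% inhibition of growth. TGI: concentration producing complete growth inhibition.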

Test system: IGROV1 ovarian
Assay: NCI-60 cell line screen, 48 h

Structure (SMILES)	GI50	TGI
CC/C=C\C[C@H]1C/C=C2/C(=O)C=C[C@@H]2C/C=C\CCCC(=O)O1	1.69 µM	4.28 µM

Test system: HL-60(TB) leukemia
Assay: NCI-60 cell line screen, 48 h

Structure (SMILES)	GI50	TGI
CCc1nc(C(N)=O)c(Nc2ccc(N3CCC(N4CCN(C)CC4)CC3)c(OC)c2)nc1NC1CCOCC1	0.871 µM and 0.367 µM and 0.968 µM	11.3 µM and > 10 µM and 14.9 µM
CC/C=C\C[C@H]1C/C=C2/C(=O)C=C[C@@H]2C/C=C\CCCC(=O)O1	0.439 µM	3.3 µM

Test system: TK-10 renal
Assay: NCI-60 cell line screen, 48 h

Structure (SMILES)	TGI	GI50
CCOC(=O)C1C2CCC1CC(=NNc1ccc([N+](=O)[O-])cc1[N+](=O)[O-])C2 (stereo not given)	> 50 µM	
O=c1c2ccccc2c(=O)c2c1[nH]c1c(-c3ccccc3)c(-c3ccccc3)c(=O)c12	52.3 µM	4.84 µM
CCc1nc(C(N)=O)c(Nc2ccc(N3CCC(N4CCN(C)CC4)CC3)c(OC)c2)nc1NC1CCOCC1		1.75 µM and 0.23 µM and 1.35 µM
CC/C=C\C[C@H]1C/C=C2/C(=O)C=C[C@@H]2C/C=C\CCCC(=O)O1	5.03 µM	1.8 µM

Test system: HT29 colon
Assay: NCI-60 cell line screen, 48 h

Structure (SMILES)	TGI	GI50
CCOC(=O)C1C2CCC1CC(=NNc1ccc([N+](=O)[O-])cc1[N+](=O)[O-])C2 (stereo not given)	> 50 µM	
O=c1c2ccccc2c(=O)c2c1[nH]c1c(-c3ccccc3)c(-c3ccccc3)c(=O)c12	> 100 µM	4.29 µM
CCc1nc(C(N)=O)c(Nc2ccc(N3CCC(N4CCN(C)CC4)CC3)c(OC)c2)nc1NC1CCOCC1	> 43.8 µM	0.569 µM and 0.251 µM and 0.467 µM
CC/C=C\C[C@H]1C/C=C2/C(=O)C=C[C@@H]2C/C=C\CCCC(=O)O1	1.27 µM	0.376 µM

Test system: SNB-19 CNS
Assay: NCI-60 cell line screen, 48 h

Structure (SMILES)	TGI	GI50
CCOC(=O)C1C2CCC1CC(=NNc1ccc([N+](=O)[O-])cc1[N+](=O)[O-])C2 (stereo not given)	> 50 µM	
O=c1c2ccccc2c(=O)c2c1[nH]c1c(-c3ccccc3)c(-c3ccccc3)c(=O)c12	11.8 µM	3.26 µM
CCc1nc(C(N)=O)c(Nc2ccc(N3CCC(N4CCN(C)CC4)CC3)c(OC)c2)nc1NC1CCOCC1	20.2 µM and > 10 µM and 22.7 µM	
CC/C=C\C[C@H]1C/C=C2/C(=O)C=C[C@@H]2C/C=C\CCCC(=O)O1	11.7 µM	2.09 µM

Test system: SK-MEL-5 melanoma
Assay: NCI-60 cell line screen, 48 h

Structure (SMILES)	TGI	GI50
CCOC(=O)C1C2CCC1CC(=NNc1ccc([N+](=O)[O-])cc1[N+](=O)[O-])C2 (stereo not given)	> 50 µM	
O=c1c2ccccc2c(=O)c2c1[nH]c1c(-c3ccccc3)c(-c3ccccc3)c(=O)c12	4.03 µM	2.05 µM
CCc1nc(C(N)=O)c(Nc2ccc(N3CCC(N4CCN(C)CC4)CC3)c(OC)c2)nc1NC1CCOCC1	25.4 µM and > 10 µM and 26.4 µM	12.4 µM and > 10 µM and 13.2 µM
CC/C=C\C[C@H]1C/C=C2/C(=O)C=C[C@@H]2C/C=C\CCCC(=O)O1	2.74 µM	1.38 µM

Test system: MALME-3M melanoma
Assay: NCI-60 cell line screen, 48 h

Structure (SMILES)	TGI	GI50
CCOC(=O)C1C2CCC1CC(=NNc1ccc([N+](=O)[O-])cc1[N+](=O)[O-])C2 (stereo not given)	> 50 µM	
O=c1c2ccccc2c(=O)c2c1[nH]c1c(-c3ccccc3)c(-c3ccccc3)c(=O)c12	8.19 µM	2.24 µM
CCc1nc(C(N)=O)c(Nc2ccc(N3CCC(N4CCN(C)CC4)CC3)c(OC)c2)nc1NC1CCOCC1		0.946 µM and 0.239 µM and 0.764 µM
CC/C=C\C[C@H]1C/C=C2/C(=O)C=C[C@@H]2C/C=C\CCCC(=O)O1	4.86 µM	1.92 µM

Test system: MOLT-4 leukemia
Assay: NCI-60 cell line screen, 48 h

Structure (SMILES)	TGI	GI50
CCOC(=O)C1C2CCC1CC(=NNc1ccc([N+](=O)[O-])cc1[N+](=O)[O-])C2 (stereo not given)	> 50 µM	
O=c1c2ccccc2c(=O)c2c1[nH]c1c(-c3ccccc3)c(-c3ccccc3)c(=O)c12	13.3 µM	1.92 µM
CCc1nc(C(N)=O)c(Nc2ccc(N3CCC(N4CCN(C)CC4)CC3)c(OC)c2)nc1NC1CCOCC1	21.5 µM and > 2.7 µM and 25.4 µM	3.55 µM and 0.794 µM and 4.06 µM
CC/C=C\C[C@H]1C/C=C2/C(=O)C=C[C@@H]2C/C=C\CCCC(=O)O1	5.21 µM	0.604 µM

Test system: NCI/ADR-RES ovarian
Assay: NCI-60 cell line screen, 48 h

Structure (SMILES)	TGI	GI50
CCOC(=O)C1C2CCC1CC(=NNc1ccc([N+](=O)[O-])cc1[N+](=O)[O-])C2 (stereo not given)	> 50 µM	
O=c1c2ccccc2c(=O)c2c1[nH]c1c(-c3ccccc3)c(-c3ccccc3)c(=O)c12	21.7 µM	3.76 µM
CCc1nc(C(N)=O)c(Nc2ccc(N3CCC(N4CCN(C)CC4)CC3)c(OC)c2)nc1NC1CCOCC1	22.2 µM and > 10 µM and 26.8 µM	4.33 µM and 3.75 µM and 5.19 µM
